Tests used:
[1] = system: rat primary pancreatic cells; assay: Toxicity against rat primary pancreatic cells (MTT); details: for live cells with respect to the non-treated control (means ± S.E.M.): rat, 7 h, pH 7.4
Method: The toxicity of the compounds against rat primary pancreatic cells was evaluated by the MTT protocol (Table 2). […] Sodium taurocholate (NaTc) was also used at high concentrations as a model of acute pancreatitis in vitro.
Rat primary pancreatic cells were isolated as previously described. Afterwards, pancreatic cells were resuspended in Na-HEPES solution (pH 7.4) containing 14 mM glucose, 1% essential amino acid mixture, 1% (w/v) BSA, 0.01% (w/v) STI, 0.5 mM CaCl2 and incubated (5% CO2, at 37 °C) for 7 h in the absence (non-treated control) or the presence of compounds at different concentrations. After the treatment, cells were incubated (5% CO2, at 37 °C) with 0.5 mg/mL MTT for 2 h and the formazan crystals were solubilized with DMSO (v/v). The optical density was read at 570 nm with a reference wavelength of 630 nm. Non-treated cell viability was set as 100%.

[2] = system: HT-29 colon adenocarcinoma; assay: MTT cell antiproliferative assay, HT-29 (without or with verapamil); type: cell-based, human; details: Homo sapiens, HT-29; MTT, 72 h
[3] = system: Bovine brain microtubule protein (MTP); assay: Tubulin polymerization inhibition assay (turbidimetry); type: biochemical; details: 1.5 mg/mL MTP; IC50 calculated only if more than 50% inhibition at 20 µM; read-out: TPI IC50

Structure (SMILES) | toxicity against primary pancreatic cultured cells [1] | live cells with respect to the non-treated control (means ± S.E.M.) ([1]; 0.25 µM) | live cells with respect to the non-treated control (means ± S.E.M.) ([1]; 0.5 µM) | IC50 [2] | IC50 [3]
COc1cc(C(=O)c2cccc(N(C)C)c2)cc(OC)c1OC [Compound 1f, (3-(Dimethylamino)phenyl)(3,4,5-trimethoxyphenyl)methanone] | very low toxicity | 106.59 ± 17.60% | 95.97 ± 10.55% | 460 nM | > 20000 nM
COc1cc(C(=O)c2ccnc(N3CCCC3)c2)cc(OC)c1OC [Compound 1h, (2-(Pyrrolidin-1-yl)pyridin-4-yl)(3,4,5-trimethoxyphenyl)methanone] | very low toxicity | 103.84 ± 9.20% | 102.59 ± 14.73% | 71 nM | 9100 nM
C=C(c1ccc(N(C)C)nc1)c1cc(OC)c(OC)c(OC)c1 [Compound 3b, N,N-Dimethyl-5-(1-(3,4,5-trimethoxyphenyl)vinyl)pyridin-2-amine] | very low toxicity | 112.81 ± 19.30% | 94.06 ± 13.13% | 277 nM | 35900 nM
COc1cc(C=Cc2ccc(N(C)C)nc2)cc(OC)c1OC [Compound 8b, N,N-dimethyl-5-(3,4,5-trimethoxystyryl)pyridin-2-amine] | very low toxicity | 94.31 ± 11.83% | 91.65 ± 13.88% | 78 nM | 5100 nM
